Assay results reported in publication PMC3209502 (European journal of pharmacology, 2011).

Tests used:
Sprague Dawley Rats = experiment: Locomotor activity test; assay type: in vivo, rat; conditions: 5 mg/kg i.p., measured 0.5 h from 1 h post injection, vs vehicle
male Sprague Dawley rats = experiment: Rat forced swimming test; assay type: in vivo; conditions: 15 mg/kg i.p., 30 min pretreatment, vs vehicle
C57Bl/6 mice = experiment: Mouse tail suspension test; assay type: in vivo; conditions: 15 mg/kg, 30 min before testing, vs vehicle

Row | SMILES | locomotor activity (horizontal activity, HACTV) (Sprague Dawley Rats) | duration of immobility in the forced swimming test (male Sprague Dawley rats) | immobility of mice in the tail suspension test (C57Bl/6 mice)
1 | Fc1ccc(C(OCCN2CCN(CCCc3ccccc3)CC2)c2ccc(F)cc2)cc1 [GBR 12909, 1-[2-[bis(4-fluorophenyl)methoxy]ethyl]-4-[3-phenylpropyl]piperazine] | significant rise |  | 
2 | CN(C)CCCN1c2ccccc2CCc2ccccc21 [imipramine, Imipramine] |  | produced a reduction in immobility | significantly different compared to vehicle
